According to patent US8518874B2, “HCV inhibitors” (Virobay, Inc., priority 2005, dated 2013):
Like-named read-outs stand apart in the source and are kept apart here.

System: HCV replication (HCV replicon RNA in Huh7/Clone A cells)
Assay: HCV Replicon Assay
Type: cell-based
Conditions: Hepatitis C virus, read-out: IC50 for inhibition of HCV replication
Excerpt: The HCV replicon assay is a cell-culture system that mimics in vivo HCV replication and provides a system to study HCV replication in vitro. It was created by transfecting cloned viral RNA derived from a consensus HCV genomic sequence into human Huh7 hepatoma cells that are semi-permissive for viral RNA production (Lohmann V., Korner F., Koch J.-O., Herian U., Theilmann L. and Bartenschlager R. (1999). Replication of subgenomic Hepatitis C virus RNAs in a hepatoma cell line. Science 285, 110-113 and Blight K. J., Kolykhalov A. A. and Rice C. M. (2000). Efficient initiation of HCV RNA Replication in cell culture. Science 290, […]). These transfected cell lines contain a subgenomic HCV RNA genome that includes (1) the HCV 5′NTR fused to 12 amino acids of the capsid coding region, (2) the neomycin phosphotransferase gene (Neo) as a selectable marker, (3) the internal ribosome entry site (IRES) from encephalomyocarditis virus (EMCV) that directs translation of HCV non-structural proteins (variously NS2 or NS3 to NS5B), and (4) the 3′ NTR. Replicon-containing cells autonomously and persistently replicate HCV RNA that can be measured quantitatively by real-time qPCR. Therefore, the replicon system facilitates quantitative assessment of anti-viral activity by monitoring changes in HCV RNA replication in a cell-based assay.
HCV replicon-containing cells (Huh7/Clone A) were routinely maintained in Clone A growth medium (DMEM medium [Invitrogen], supplemented with 10% Fetal Bovine Serum, 1% Non Essential Amino Acids and 1 g/L G418). Test compounds were dissolved in dimethyl sulfoxide (DMSO) to make 200× stock solutions for all doses prior to treatment.
For the HCV replicon assay, Huh7/Clone A cells were trypsinized from culture flasks, seeded in 1 ml of Clone A growth medium without G418 at 4×10^4 cells per well in 24-well plates and incubated at 37° C. in a humidified CO2 (5%) incubator overnight. Following overnight incubation, compound solutions were added into wells in the same volume (5 μl of 200× compound stock per well) to give a final DMSO concentration of 0.5%. Three wells on each plate supplemented with 5 μl of DMSO served as untreated controls. For IC50 determinations, compounds were tested at 7 serial dilutions in triplicates from the starting stock solutions. The plates were incubated at 37° C. for 48 hours. After incubation, cells were harvested, transferred to 96-well plates, and subjected to total RNA extraction using the RNA Isolation Kit (RNeasy 96, Qiagen) according to the protocol described by the manufacture's RNeasy 96 Handbook (Qiagen).
Total RNA eluted in 130 μl of RNase-free dH2O was quantitated by the RiboGreen Assay according to the supplier's protocol (Molecular Probe). Briefly, 5 μl of RNA samples were aliquoted in duplicate to a 96-well black microplate and a 96-well TaqMan Optical plate. RNA samples in the black microplate were mixed with 95 μl of diluted RiboGreen:reagent (1:250 dilution in TE buffer) and sample fluorescence was measured using a fluorescence microplate reader at standard fluorescein wavelengths (excitation ˜480 nm, emission ˜520 nm). Ribosomal RNA (Molecular Probe) was used as standard.
TaqMan quantitative PCR (RT-qPCR) was used to quantitate the amount of HCV replicon RNA in each sample. The RT-qPCR reactions were performed in 25 μl on an ABI PRISM 7900 HT Sequence Detection System (Applied Biosystems). The reaction mixture contained 5 μl of total RNA (10-100 ng), 1×TaqMan Buffer A (Applied Biosystems), 5.5 mM MgCl2, 1.2 mM dNTP mix, 0.625 U of AmpliTaq Gold (Applied Biosystems), 5 U of MMLV reverse transcriptase (Promega), 5 U of rRNasin (Promega), 300 nM each of the forward and reverse primers, and 100 nM TaqMan MGB probe. […]

[1] = Huh-7, HCV replicon-containing Huh7/Clone A cells, 48 hours incubation, replicon RNA by RT-qPCR normalized to total RNA

SMILES | IC50 (Huh-7, 48 h) | IC50 [1]
CC(C)(C)NC(=O)N[C@H](C(=O)N1CC(Oc2ccc(Cl)cn2)C[C@H]1C(=O)N[C@@H](CC1CCC1)C(=O)C(=O)NC1CC1)C(C)(C)C (stereo partly drawn) [Compound 3, 1-[2S-(3-tert-butylureido)-3,3-dimethylbutyryl]-4R-(5-chloropyridin-2-yloxy)-pyrrolidine-2S-carboxylic acid (1S-cyclobutylmethyl-2-cyclopropylcarbamoyl-2-oxoethyl)-amide] | < 50 µM | –
CCC[C@H](NC(=O)[C@@H]1C[C@@H](Oc2ccc(Cl)cn2)CN1C(=O)[C@@H](NC(=O)OC(C)(C)C)C(C)(C)C)C(=O)C(=O)NC1CC1 [Compound 6, {1S-[4R-(5-chloropyridin-2-yloxy)-2S-(1S-cyclopropylaminooxalylbutyl-carbamoyl)-pyrrolidine-1-carbonyl]-2,2-dimethyl-propyl}-carbamic acid tent-butyl ester] | < 50 µM | –
CC(C)(C)OC(=O)N[C@H](C(=O)N1C[C@H](Oc2ccc(Cl)cn2)C[C@H]1C(=O)N[C@@H](CC1CCC1)C(=O)C(=O)NC1CC1)C(C)(C)C [Compound 7, {1S-[4R-(5-chloropyridin-2-yloxy)-2S-(1S-cyclobutylmethyl-2-cyclopropylcarbamoyl-2-oxo-ethylcarbamoyl)-pyrrolidine-1-carbonyl]-2,2-dimethyl-propyl}-carbamic acid tert-butyl ester] | < 50 µM | –
CCC[C@H](NC(=O)[C@@H]1C[C@@H](Oc2ccc(Cl)cn2)CN1C(=O)[C@@H](NC(=O)NC(C)(C)C)C(C)(C)C)C(=O)C(=O)NC1CC1 [Compound 8, 1-[2-(3-tert-butylureido)-3,3-dimethyl-butyryl]-4-(5-chloro-pyridin-2-yloxy)-pyrrolidine-2-carboxylic acid (1-cyclopropylaminooxalyl-butyl)-amide] | – | < 10 µM
COc1ccc2c(OC3C[C@@H](C(=O)N[C@@H](CC4CC4)C(=O)C(=O)NC4CC4)N(C(=O)[C@@H](NC(=O)NC(C)(C)C)C(C)(C)C)C3)nccc2c1 (stereo partly drawn) [Compound 10, 1-[2S-(3-tert-Butyl-ureido)-3,3-dimethyl-butyryl]-4R-(6-methoxy-isoquinolin-1-yloxy)-pyrrolidine-2S-carboxylic acid (2-cyclopropylcarbamoyl-1S-cyclopropylmethyl-2-oxo-ethyl)-amide] | – | < 10 µM
CCOc1ccc2c(OC3C[C@@H](C(=O)N[C@@H](CC4CC4)C(=O)C(=O)NC4CC4)N(C(=O)[C@@H](NC(=O)NC(C)(C)C)C(C)(C)C)C3)nccc2c1 (stereo partly drawn) [Compound 11, 1-[2S-(3-tert-Butyl-ureido)-3,3-dimethyl-butyryl]-4R-(6-ethoxy-isoquinolin-1-yloxy)-pyrrolidine-2-carboxylic acid (2-cyclopropylcarbamoyl-1S-cyclopropylmethyl-2S-oxo-ethyl)-amide] | – | < 10 µM
CCC[C@H](NC(=O)[C@@H]1CC(Oc2nccc3cc(OCC)ccc23)CN1C(=O)[C@@H](NC(=O)NC(C)(C)C)C(C)(C)C)C(=O)C(=O)NC1CC1 (stereo partly drawn) [Compound 12, 1-[2S-(3-tert-Butyl-ureido)-3,3-dimethyl-butyryl]-4R-(6-ethoxy-isoquinolin-1-yloxy)-pyrrolidine-2S-carboxylic acid (1S-cyclopropylaminooxalyl-butyl)-amide] | – | < 10 µM
CCCC[C@H](NC(=O)[C@@H]1CC(Oc2nccc3cc(OC)ccc23)CN1C(=O)[C@@H](NC(=O)NC(C)(C)C)C(C)(C)C)C(=O)C(=O)NC1CC1 (stereo partly drawn) [Compound 13, 1-[2S-(3-tert-Butyl-ureido)-3,3-dimethyl-butyryl]-4R-(6-methoxy-isoquinolin-1-yloxy)-pyrrolidine-2S-carboxylic acid (1S-cyclopropylaminooxalyl-pentyl)-amide] | – | < 10 µM
